The record followed here is patent publication US9951065B2 (Gilead Sciences, Inc., priority 2015, dated 2018).

Each structure is given as a SMILES string.

T1 sequence (P14902 whole entry): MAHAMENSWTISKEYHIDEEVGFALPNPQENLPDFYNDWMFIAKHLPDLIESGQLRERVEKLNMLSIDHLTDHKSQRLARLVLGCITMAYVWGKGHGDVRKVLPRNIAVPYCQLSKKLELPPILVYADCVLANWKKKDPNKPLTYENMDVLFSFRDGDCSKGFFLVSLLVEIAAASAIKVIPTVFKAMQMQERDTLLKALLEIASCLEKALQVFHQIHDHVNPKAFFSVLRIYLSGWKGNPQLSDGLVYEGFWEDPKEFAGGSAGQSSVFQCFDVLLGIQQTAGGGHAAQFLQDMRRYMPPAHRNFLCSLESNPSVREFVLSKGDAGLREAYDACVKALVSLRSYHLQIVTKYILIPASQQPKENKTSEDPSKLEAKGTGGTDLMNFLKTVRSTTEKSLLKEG

The test concerns the target T1, IDO1 (Homo sapiens, UniProt P14902).
T1 construct: HeLa cells were treated with a test compound in the presence of IFNγ, which induces IDO1 expression; host or cells: H1-HeLa cells, IDO1 induced with IFNγ
Briefly: Cell-based (HeLa) assay for measurement of IDO1 inhibition (kynurenine levels in supernatant after IFNγ induction). The note with it: HeLa cells, IFNγ-induced IDO1, kynurenine in supernatant, 48 hour incubation; geometric mean of a minimum of four determinations. In short, it runs like this:
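IDO1 activity is read as kynurenine released into the medium, detected with Ehrlich's reagent (p-dimethylaminobenzaldehyde) at 480 nm after TCA treatment. HeLa cells were exposed 48 h to compounds in 0.5% DMSO alongside IFNγ induction. Values normalized to no-IFNγ and IFNγ controls; four-parameter EC50 given as geometric mean of ≥4 determinations.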
`O/N=C(\Nc1ccc(F)c(Cl)c1)c1cc(F)cc2nc(NCCN3CCCC3)[nH]c12` [Example 380, N-(3-chloro-4-fluorophenyl)-5-fluoro-N′-hydroxy-2-((2-(pyrrolidin-1-yl)ethyl)amino)-1H-benzo[d]imidazole-7-carboximidamide] had an EC50 of 1390 nM.
For the compound `CN(C)CC(C)(C)CNc1nc2c(F)ccc(/C(=N/O)Nc3ccc(F)c(Cl)c3)c2[nH]1` [Example 381, N-(3-chloro-4-fluorophenyl)-2-((3-(dimethylamino)-2,2-dimethylpropyl)amino)-4-fluoro-N′-hydroxy-1H-benzo[d]imidazole-7-carboximidamide], the midpoint of the response, the EC50, lay at 3030 nM.
The value for `CN(C)CCNc1nc2c(F)ccc(/C(=N/O)Nc3ccc(F)c(Br)c3)c2[nH]1` [Example 382, N-(3-bromo-4-fluorophenyl)-2-((2-(dimethylamino)ethyl)amino)-4-fluoro-N′-hydroxy-1H-benzo[d]imidazole-7-carboximidamide] was 608 nM.
Take `CN(C)CCNc1nc2c(F)ccc(/C(=N/O)Nc3cccc(Br)c3)c2[nH]1` [Example 383, N-(3-bromophenyl)-2-((2-(dimethylamino)ethyl)amino)-4-fluoro-N′-hydroxy-1H-benzo[d]imidazole-7-carboximidamide]: the half-maximal effective concentration (EC50) came out at 319 nM. This EC50 is about 1.9-fold lower than that of the compound before.
The value for `CN(C)CCNc1nc2c(F)ccc(/C(=N/O)Nc3cccc(Cl)c3)c2[nH]1` [Example 384, N-(3-chlorophenyl)-2-((2-(dimethylamino)ethyl)amino)-4-fluoro-N′-hydroxy-1H-benzo[d]imidazole-7-carboximidamide] was 290 nM; that for `CN(C)CCCNc1nc2c(F)c(F)cc(/C(=N/O)Nc3cccc(Cl)c3)c2[nH]1` [Example 385, N-(3-chlorophenyl)-2-((3-(dimethylamino)propyl)amino)-4,5-difluoro-N′-hydroxy-1H-benzo[d]imidazole-7-carboximidamide] was 580 nM; that for `CN(C)CCCNc1nc2c(F)c(F)cc(/C(=N/O)Nc3cccc(Br)c3)c2[nH]1` [Example 386, N-(3-bromophenyl)-2-((3-(dimethylamino)propyl)amino)-4,5-difluoro-N′-hydroxy-1H-benzo[d]imidazole-7-carboximidamide] was 559 nM.
The value for `CN(C)CCCNc1nc2c(F)c(F)cc(/C(=N/O)Nc3ccc(F)c(Br)c3)c2[nH]1` [Example 387, N-(3-bromo-4-fluorophenyl)-2-((3-(dimethylamino)propyl)amino)-4,5-difluoro-N′-hydroxy-1H-benzo[d]imidazole-7-carboximidamide] was 692 nM; that for `CN(C)CCCNc1nc2c(F)ccc(/C(=N/O)Nc3ccc(F)c(Cl)c3)c2[nH]1` [Example 388, N-(3-chloro-4-fluorophenyl)-2-((3-(dimethylamino)propyl)amino)-4-fluoro-N′-hydroxy-1H-benzo[d]imidazole-7-carboximidamide] was 939 nM; that for `CN(C)CCCNc1nc2cc(F)cc(/C(=N/O)Nc3ccc(F)c(Cl)c3)c2[nH]1` [Example 389, N-(3-chloro-4-fluorophenyl)-2-((3-(dimethylamino)propyl)amino)-5-fluoro-N′-hydroxy-1H-benzo[d]imidazole-7-carboximidamide] was 1160 nM.
Take `CN(CCNc1nc2c(F)c(F)cc(/C(=N/O)Nc3ccc(F)c(Cl)c3)c2[nH]1)Cc1ccccc1` [Example 390, 2-((2-(benzyl(methyl)amino)ethyl)amino)-N-(3-chloro-4-fluorophenyl)-4,5-difluoro-N′-hydroxy-W-benzo[d]imidazole-7-carboximidamide]: the EC50 stood at 1020 nM.
With `CN(CCc1nc2nccc(/C(=N/O)Nc3ccc(F)c(Cl)c3)c2[nH]1)CC1CCCCC1` [Example 391, N-(3-chloro-4-fluorophenyl)-2-(2-((cyclohexylmethyl)(methyl)amino)ethyl)-N′-hydroxy-1H-imidazo[4,5-b]pyridine-7-carboximidamide], the response was half-maximal at 1480 nM (EC50).
Regarding `CN(CCc1nc2nccc(/C(=N/O)Nc3ccc(F)c(Cl)c3)c2[nH]1)CC(C)(C)C` [Example 392, N-(3-chloro-4-fluorophenyl)-N′-hydroxy-2-(2-(methyl(neopentyl)amino)ethyl)-1H-imidazo[4,5-b]pyridine-7-carboximidamide], the EC50 came out at 1230 nM.
As for `CN(CCc1nc2nccc(/C(=N/O)Nc3ccc(F)c(Cl)c3)c2[nH]1)C1CCCCC1` [Example 393, N-(3-chloro-4-fluorophenyl)-2-(2-(cyclohexyl(methyl)amino)ethyl)-N′-hydroxy-1H-imidazo[4,5-b]pyridine-7-carboximidamide], the figure is 1790 nM; as for `CN(CCNc1nc2c(F)c(F)cc(/C(=N/O)Nc3ccc(F)c(Cl)c3)c2[nH]1)CC1CCOCC1` [Example 394, N-(3-chloro-4-fluorophenyl)-4,5-difluoro-N′-hydroxy-2-((2-(methyl((tetrahydro-2H-pyran-4-yl)methyl)amino)ethyl)amino)-1H-benzo[d]imidazole-7-carboximidamide], 332 nM; as for `CNCCNc1nc2c(F)c(F)cc(/C(=N/O)Nc3ccc(F)c(Cl)c3)c2[nH]1` [Example 395, N-(3-chloro-4-fluorophenyl)-4,5-difluoro-N′-hydroxy-2-((2-(methylamino)ethyl)amino)-1H-benzo[d]imidazole-7-carboximidamide], 757 nM.
As for `CN(CCc1nc2nccc(/C(=N/O)Nc3ccc(F)c(Cl)c3)c2[nH]1)Cc1ccccc1` [Example 396, 2-(2-(benzyl(methyl)amino)ethyl)-N-(3-chloro-4-fluorophenyl)-N′-hydroxy-1H-imidazo[4,5-b]pyridine-7-carboximidamide], the figure is 790 nM; as for `CCC(CC)CN(C)CCNc1nc2c(F)c(F)cc(/C(=N/O)Nc3ccc(F)c(Cl)c3)c2[nH]1` [Example 397, N-(3-chloro-4-fluorophenyl)-2-((2-((2-ethylbutyl)(methyl)amino)ethyl)amino)-4,5-difluoro-N′-hydroxy-1H-benzo[d]imidazole-7-carboximidamide], 1320 nM.
With `CN(CCNc1nc2c(F)c(F)cc(/C(=N/O)Nc3ccc(F)c(Cl)c3)c2[nH]1)CC1CC1` [Example 398, N-(3-chloro-4-fluorophenyl)-2-((2-((cyclopropylmethyl)(methyl)amino)ethyl)amino)-4,5-difluoro-N′-hydroxy-1H-benzo[d]imidazole-7-carboximidamide], the concentration for a half-maximal effect (EC50) was determined as 555 nM.
The value for `CN(CCc1nc2nccc(/C(=N/O)Nc3ccc(F)c(Cl)c3)c2[nH]1)CC1CCOCC1` [Example 399, N-(3-chloro-4-fluorophenyl)-N′-hydroxy-2-(2-(methyl((tetrahydro-2H-pyran-4-yl)methyl)amino)ethyl)-1H-imidazo[4,5-b]pyridine-7-carboximidamide] was 1330 nM; that for `CN(CCc1nc2nccc(/C(=N/O)Nc3ccc(F)c(Cl)c3)c2[nH]1)CC1COCCO1` (centres unmarked) [Example 400, 2-(2-(((1,4-dioxan-2-yl)methyl)(methyl)amino)ethyl)-N-(3-chloro-4-fluorophenyl)-N′-hydroxy-1H-imidazo[4,5-b]pyridine-7-carboximidamide] was 2810 nM; that for `CN(CCc1nc2nccc(/C(=N/O)Nc3ccc(F)c(Cl)c3)c2[nH]1)CCC1CCOCC1` [Example 401, N-(3-chloro-4-fluorophenyl)-N′-hydroxy-2-(2-(methyl(2-(tetrahydro-2H-pyran-4-yl)ethyl)amino)ethyl)-1H-imidazo[4,5-b]pyridine-7-carboximidamide] was 581 nM.
`O/N=C(\Nc1ccc(F)c(Cl)c1)c1ccnc2nc(NCCNC3CC3)[nH]c12` [Example 402, N-(3-chloro-4-fluorophenyl)-2-((2-(cyclopropylamino)ethyl)amino)-N′-hydroxy-1H-imidazo[4,5-b]pyridine-7-carboximidamide]: the EC50 was 561 nM.
The value for `CCN(CCNc1nc2nccc(/C(=N/O)Nc3ccc(F)c(Cl)c3)c2[nH]1)C1CC1` [Example 403, N-(3-chloro-4-fluorophenyl)-2-((2-(cyclopropyl(ethyl)amino)ethyl)amino)-N′-hydroxy-1H-imidazo[4,5-b]pyridine-7-carboximidamide] was 192 nM.
With `CC(=O)NCCNc1nc2nccc(/C(=N/O)Nc3ccc(F)c(Cl)c3)c2[nH]1` [Example 404, N-(2-((7-(N-(3-chloro-4-fluorophenyl)-N′-hydroxycarbamimidoyl)-1H-imidazo[4,5-b]pyridin-2-yl)amino)ethyl)acetamide], the concentration giving a half-maximal response (EC50) was over 10000 nM.
The value for `CS(=O)(=O)NCCNc1nc2nccc(/C(=N/O)Nc3ccc(F)c(Cl)c3)c2[nH]1` [Example 405, N-(3-chloro-4-fluorophenyl)-N′-hydroxy-2-((2-(methylsulfonamido)ethyl)amino)-1H-imidazo[4,5-b]pyridine-7-carboximidamide] was 7110 nM; that for `CC(C)N(CCNc1nc2nccc(/C(=N/O)Nc3ccc(F)c(Cl)c3)c2[nH]1)C1CC1` [Example 406, N-(3-chloro-4-fluorophenyl)-2-((2-(cyclopropyl(isopropyl)amino)ethyl)amino)-N′-hydroxy-1H-imidazo[4,5-b]pyridine-7-carboximidamide] was 185 nM.
Turning to `OCCN(CCNc1nc2nccc(/C(=N/O)Nc3ccc(F)c(Cl)c3)c2[nH]1)C1CC1` [Example 407, N-(3-chloro-4-fluorophenyl)-2-((2-(cyclopropyl(2-hydroxyethyl)amino)ethyl)amino)-N′-hydroxy-1H-imidazo[4,5-b]pyridine-7-carboximidamide], the midpoint of the response, the EC50, lay at 2120 nM.
Take `Cc1nnc(CNc2nc3nccc(/C(=N/O)Nc4ccc(F)c(Cl)c4)c3[nH]2)o1` [Example 427, N-(3-chloro-4-fluorophenyl)-N′-hydroxy-2-(((5-methyl-1,3,4-oxadiazol-2-yl)methyl)amino)-1H-imidazo[4,5-b]pyridine-7-carboximidamide]: the EC50 stood at 1070 nM.
